Consider three compounds from patent US5284870A, “Aldose reductase inhibitor” (Shionogi Seiyaku Kabushiki Kaisha, priority 1992, dated 1994).

In this experiment the target is T1, aldose reductase (Rattus norvegicus, UniProt P07943).
T1 construct: Lenses were removed from 20 eyeballs of rats and homogenized in 4 ml of 5 mM mercaptethanol; from tissue; host or cells: rat lens, 10,000 rpm supernatant of homogenate
Nature of the experiment: Aldose reductase-inhibiting activity (absorbance change at 340 nm, homogenate of rat lenses as enzyme source, glyceroaldehyde substrate, NADPH coenzyme). It counts as biochemical. To be noted: rat lens homogenate, 10 mM D,L-glyceroaldehyde, 0.4M Li2SO4, initial one minute. As to the method:
The change in absorbance at 340 nm for initial one minute was measured, and the inhibiting activity was determined.
Lenses were removed from 20 eyeballs of rats and homogenized in 4 ml of 5 mM mercaptethanol using Glass-Teflon Homogenate. The obtained homogenate was centrifuged at 4° C. and 10,000 rpm for 20 minutes, and resulting supernatant was used as the enzyme source.

The IC50 is the concentration at which inhibition is half-maximal. Consider `O=C(O)CCC1(O)OC2=CC(=O)c3c(O)cc(O)cc3C2=C1c1ccc(O)cc1` (stereo not drawn) [RF-3192 A], for which the IC50 was 8.33 nM (mass concentration) and 8.2 nM (molar value in parentheses).
Regarding `O=C(O)CCC1(O)OC2=CC(=O)c3c(O)cc(O)cc3C2=C1c1ccccc1` (stereo not drawn) [RF-3192 B], under “mass concentration”, the Ic50 turned out to be 1.6 ng/mL. Where the note is “molar value in parentheses”, the IC50 was found to be 4.2 nM.
For `O=C1C=C2OC3(O)CC(=O)c4c(O)cc(O)cc4C3=C2c2cc(O)cc(O)c21` (stereo not drawn) [RF-3192 C], in that order: 130 ng/mL and 340 nM.
